ChEMBL document CHEMBL1140266, “(2R)-2-methylchromane-2-carboxylic acids: discovery of selective PPARalpha agonists as hypolipidemic agents” (Bioorg Med Chem Lett, 2005)

Tests used:
[1] = molecular target: T1, Peroxisome proliferator-activated receptor alpha (Homo sapiens, UniProt Q07869)
T1 sequence (Q07869 whole entry): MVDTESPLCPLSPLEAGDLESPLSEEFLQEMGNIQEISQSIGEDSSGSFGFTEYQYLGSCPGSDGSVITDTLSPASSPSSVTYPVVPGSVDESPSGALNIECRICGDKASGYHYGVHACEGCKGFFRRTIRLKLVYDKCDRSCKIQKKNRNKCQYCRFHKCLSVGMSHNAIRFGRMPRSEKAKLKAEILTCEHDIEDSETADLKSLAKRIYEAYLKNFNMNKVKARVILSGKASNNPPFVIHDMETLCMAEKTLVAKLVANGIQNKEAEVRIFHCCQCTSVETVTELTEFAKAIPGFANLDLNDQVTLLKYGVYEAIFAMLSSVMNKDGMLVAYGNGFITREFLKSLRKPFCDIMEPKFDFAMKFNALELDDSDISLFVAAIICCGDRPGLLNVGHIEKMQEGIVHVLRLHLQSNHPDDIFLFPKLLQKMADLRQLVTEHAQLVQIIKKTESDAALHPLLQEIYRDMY
Description: In vitro binding affinity against human PPARalpha

[2] = molecular target: T2, Peroxisome proliferator-activated receptor delta (Homo sapiens, UniProt Q03181)
T2 sequence (Q03181 whole entry): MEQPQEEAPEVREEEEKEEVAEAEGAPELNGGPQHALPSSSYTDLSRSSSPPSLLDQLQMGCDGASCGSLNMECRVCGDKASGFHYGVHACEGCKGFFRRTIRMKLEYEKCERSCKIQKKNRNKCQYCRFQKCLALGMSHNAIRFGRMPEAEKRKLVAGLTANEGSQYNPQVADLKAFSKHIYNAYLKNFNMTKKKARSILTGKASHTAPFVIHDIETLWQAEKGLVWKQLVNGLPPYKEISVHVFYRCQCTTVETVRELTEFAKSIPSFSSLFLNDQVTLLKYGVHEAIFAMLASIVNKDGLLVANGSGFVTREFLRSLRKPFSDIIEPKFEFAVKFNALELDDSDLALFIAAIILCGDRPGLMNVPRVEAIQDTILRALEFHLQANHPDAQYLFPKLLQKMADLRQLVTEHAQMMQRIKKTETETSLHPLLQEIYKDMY
Description: In vitro binding affinity against human PPARdelta

[3] = molecular target: T1, Peroxisome proliferator-activated receptor alpha; assay type: functional, cell-based, COS-1
Description: Agonist activity against human PPARalpha in COS-1 cell Gal4 assay

Cricetinae gen. sp. [4] = assay type: functional, Cricetulus griseus; conditions: at 10 mg/kg
Description: In vivo efficacy at 10 mpk against Hamster for cholesterol lowering effect after oral dosing; Number of animals= 9 (vehicle 0.5% methylcellulose)

Cricetinae gen. sp. [5] = assay type: functional; conditions: at 10 mg/kg
Description: In vivo efficacy at 10 mpk against Hamster for triglceride lowering effect after oral dosing; Number of animals= 9 (vehicle 0.5% methylcellulose)

in vivo [6] = conditions: Sprague-Dawley, rat, iv, 0.5 mg/kg
in vivo [7] = conditions: Sprague-Dawley, rat, po, 2 mg/kg
in vivo [8] = conditions: Sprague-Dawley, rat, iv, 0.5 mg/kg; remark: listed apart in the source
Description: Hail-life period determined against Sprague-Dawley Rat at 0.5 mg/kg after intravenous administration; (Number of rats = 3)

Cricetinae gen. sp. [9] = assay type: functional, Cricetulus griseus; conditions: at 10 mg/kg; remark: listed apart in the source
Description: In vivo efficacy at 10 mpk against Hamster for triglyceride lowering effect after oral dosing; Number of animals= 9 (vehicle 0.5% methylcellulose)

[10] = molecular target: T1, Peroxisome proliferator-activated receptor alpha; assay type: functional, cell-based; conditions: cos-1
Description: Agonist activity against human PPARalpha in COS-1 cell Gal4 assay; NA= Not active (less than 20% activation at 10 uM)

in vivo [11] = conditions: cercopithecidae, iv, 0.5 mg/kg
in vivo [12] = conditions: beagle, dog, iv, 0.5 mg/kg
in vivo [13] = conditions: beagle, dog, po, 2 mg/kg
Description: Bioavailability determined against adult Beagle dog at 2 mg/kg after peroral administration

in vivo [14] = conditions: rhesus monkey, po, 2 mg/kg
Description: Bioavailability determined against adult Rhesus monkey at 2 mg/kg after peroral administration

in vivo [15] = conditions: beagle, dog, iv, 0.5 mg/kg; remark: listed apart in the source
Description: Hail-life period determined against adult Beagle dog at 0.5 mg/kg after intravenous administration; (Number of rats = 3)

in vivo [16] = conditions: cercopithecidae, iv, 0.5 mg/kg; remark: listed apart in the source
Description: Hail-life period determined against adult Rhesus monkey at 0.5 mg/kg after intravenous administration; (Number of rats = 3)

Row | Structure (SMILES) | IC50 [1] | IC50 [2] | EC50 [3] | further results
1 | CCC(C)(C)c1ccc(OCCCOc2ccc3c(c2)O[C@@](C)(C(=O)O)CC3)c(Cl)c1 | 7 nM | 14000 nM | 4 nM | 
2 | CC(C)Cc1ccc(OCCCOc2ccc3c(c2)O[C@@](C)(C(=O)O)CC3)c(Cl)c1 | 16 nM | 7600 nM | 6 nM | Efficacy (Cricetinae gen. sp. [4]): -50%; Efficacy (Cricetinae gen. sp. [5]): -29%; clearance (in vivo [6]): 2.6 mL/min/kg; bioavailability (in vivo [7]): 87%; half-life (in vivo [8]): 2.9 h
3 | CC[C@]1(C(=O)O)CCc2ccc(OCCCOc3ccc(OC(F)(F)F)cc3Cl)cc2O1 | 37 nM | 1900 nM | 6 nM | 
4 | CC[C@]1(C(=O)O)CCc2ccc(OCCCOc3ccc(C4CCC5(CC4)CC5)cc3Cl)cc2O1 | 610 nM | > 50000 nM | 300 nM | clearance (in vivo [6]): 0.62 mL/min/kg; bioavailability (in vivo [7]): 37%; half-life (in vivo [8]): 4.5 h
5 | C[C@]1(C(=O)O)CCc2ccc(OCCCOc3ccc(C4CCCCC4)cc3Cl)cc2O1 | 28 nM | > 15000 nM | 2 nM | 
6 | C[C@]1(C(=O)O)CCc2ccc(OCCCOc3ccc(OCC4CC4)cc3Cl)cc2O1 | 600 nM | > 15000 nM | 240 nM | Efficacy (Cricetinae gen. sp. [4]): -39%; Efficacy (Cricetinae gen. sp. [9]): -13%; clearance (in vivo [6]): 5.1 mL/min/kg; bioavailability (in vivo [7]): 76%; half-life (in vivo [8]): 2.9 h
7 | C[C@]1(C(=O)O)CCc2ccc(OCCCOc3ccc(Oc4ccc(F)cc4)cc3Cl)cc2O1 | 140 nM | 5000 nM | 61 nM | 
8 | C[C@]1(C(=O)O)CCc2ccc(OCCCOc3ccc(OC(F)(F)F)cc3Cl)cc2O1 | 57 nM | 490 nM | 20 nM | 
9 | CC[C@]1(C(=O)O)CCc2ccc(OCCCOc3ccc(C4CCOCC4)cc3Cl)cc2O1 | 710 nM | > 50000 nM | 22 nM | clearance (in vivo [6]): 15.6 mL/min/kg; bioavailability (in vivo [7]): 77%; half-life (in vivo [8]): 0.9 h
10 | C[C@@]1(C(=O)O)CCc2ccc(OCCCOc3ccc(OCC(F)(F)F)cc3Cl)cc2O1 | > 50000 nM | > 50000 nM |  | EC50 [10]: Not Active
11 | COc1ccc(OCCCOc2ccc3c(c2)O[C@@](C)(C(=O)O)CC3)c(Cl)c1 | 3900 nM | > 50000 nM |  | 
12 | CC1(C)CCC(c2ccc(OCCCOc3ccc4c(c3)O[C@@](C)(C(=O)O)CC4)c(Cl)c2)CC1 | 1700 nM | > 50000 nM | 1000 nM | 
13 | CCOc1ccc(OCCCOc2ccc3c(c2)O[C@@](C)(C(=O)O)CC3)c(Cl)c1 | 1380 nM | > 15000 nM | 220 nM | 
14 | CC[C@]1(C(=O)O)CCc2ccc(OCCCOc3ccc(CC(C)C)cc3Cl)cc2O1 | 29 nM | > 50000 nM | 7 nM | 
15 | CC[C@]1(C(=O)O)CCc2ccc(OCCCOc3ccc(OCC(F)(F)F)cc3Cl)cc2O1 | 66 nM | > 50000 nM | 4 nM | 
16 | CC[C@]1(C(=O)O)CCc2ccc(OCCCOc3ccc(C(F)(F)F)cc3Cl)cc2O1 | 90 nM | 2300 nM | 36 nM | 

Row | Structure (SMILES) | IC50 [1] | IC50 [2] | EC50 [3] | further results
17 | CC[C@]1(C(=O)O)CCc2ccc(OCCCOc3ccc(F)cc3Cl)cc2O1 | > 15000 nM | > 15000 nM |  | EC50 [10]: Not Active
18 | CC[C@]1(C(=O)O)CCc2ccc(OCCCOc3ccc(C4CCCCC4)cc3Cl)cc2O1 | 15 nM | > 50000 nM | 5 nM | clearance (in vivo [6]): 8.2 mL/min/kg; bioavailability (in vivo [7]): 57%; half-life (in vivo [8]): 1.2 h
19 | CC(C)Oc1ccc(OCCCOc2ccc3c(c2)O[C@@](C)(C(=O)O)CC3)c(Cl)c1 | 240 nM | 7400 nM | 40 nM | 
20 | C[C@]1(C(=O)O)CCc2ccc(OCCCOc3ccc(C4CCC5(CC4)CC5)cc3Cl)cc2O1 | 1600 nM | > 50000 nM | 420 nM | 
21 | C[C@]1(C(=O)O)CCc2ccc(OCCCOc3ccc(OCC(F)(F)F)cc3Cl)cc2O1 | 110 nM | > 15000 nM | 40 nM | Efficacy (Cricetinae gen. sp. [4]): -60%; Efficacy (Cricetinae gen. sp. [9]): -54%; clearance (in vivo [11]): 5.6 mL/min/kg; clearance (in vivo [12]): 5.8 mL/min/kg; clearance (in vivo [6]): 5.1 mL/min/kg; bioavailability (in vivo [13]): 100%; bioavailability (in vivo [7]): 60%; bioavailability (in vivo [14]): 88%; half-life (in vivo [15]): 6.2 h; half-life (in vivo [8]): 2.7 h; half-life (in vivo [16]): 2.5 h
22 | CC[C@]1(C(=O)O)CCc2ccc(OCCCOc3ccc(C(C)C)cc3Cl)cc2O1 | 38 nM | > 15000 nM | 24 nM | 
23 | CC[C@]1(C(=O)O)CCc2ccc(OCCCOc3ccc(C4CCC(C)(C)CC4)cc3Cl)cc2O1 | 1700 nM | > 50000 nM | 700 nM | clearance (in vivo [6]): 2.7 mL/min/kg; bioavailability (in vivo [7]): 95%; half-life (in vivo [8]): 6.8 h
24 | C[C@]1(C(=O)O)CCc2ccc(OCCCOc3ccc(C4CCCC4)cc3Cl)cc2O1 | 40 nM | 10500 nM | 9 nM | Efficacy (Cricetinae gen. sp. [4]): -40%; Efficacy (Cricetinae gen. sp. [5]): -21%; clearance (in vivo [6]): 6.8 mL/min/kg; bioavailability (in vivo [7]): 54%; half-life (in vivo [8]): 1.3 h
25 | CC(C)(C)c1ccc(OCCCOc2ccc3c(c2)O[C@@](C)(C(=O)O)CC3)c(Cl)c1 | 230 nM | > 15000 nM | 80 nM | 
26 | C[C@]1(C(=O)O)CCc2ccc(OCCCOc3ccc(F)cc3Cl)cc2O1 | > 15000 nM | > 50000 nM |  | 
27 | O=C(O)C1CCc2ccc(OCCCOc3ccc(OCC(F)(F)F)cc3Cl)cc2O1 (centres undefined) | 810 nM | 6900 nM | 120 nM | 
28 | CC(C)c1ccc(OCCCOc2ccc3c(c2)O[C@@](C)(C(=O)O)CC3)c(Cl)c1 | 48 nM | > 15000 nM | 23 nM | Efficacy (Cricetinae gen. sp. [4]): -40%; Efficacy (Cricetinae gen. sp. [5]): -18%; clearance (in vivo [6]): 6.8 mL/min/kg; bioavailability (in vivo [7]): 54%; half-life (in vivo [8]): 1.3 h
29 | CC[C@]1(C(=O)O)CCc2ccc(OCCCOc3ccc(Cl)cc3Cl)cc2O1 | 400 nM | 4100 nM | 130 nM | 
30 | C[C@]1(C(=O)O)CCc2ccc(OCCCOc3ccc(OCC4CCC4)cc3Cl)cc2O1 | 390 nM | > 15000 nM | 140 nM | 
31 | CC[C@]1(C(=O)O)CCc2ccc(OCCCOc3ccc(C(C)(C)C)cc3Cl)cc2O1 | 180 nM | > 50000 nM | 28 nM | 
